Tests used:
rat MIF = molecular target: T1, rat MIF (Rattus norvegicus, UniProt P30904); assay: Binding to immobilized rat MIF by surface plasmon resonance (BIACORE 3000); settings: 10 μM in PBS, rat MIF immobilized on sensor chip CM5
T1 construct: the region encoding MIF was amplified from the complementary DNA (cDNA) library of rat and mouse brains; made in house; host or cells: Escherichia coli BL21 (DE3)
Method: The binding of rat MIF obtained in REFERENCE EXAMPLE 6 to Compound 1 obtained in REFERENCE EXAMPLE 1 was analyzed using BIACORE 3000 (manufactured by Biacore).
Rat MIF was immobilized on a sensor chip CM5 (manufactured by Biacore). Then, phosphate buffered saline (PBS) containing 10 μM of Compound 1 was flown over the sensor chip and changes in the surface plasmon resonance signal were monitored as the binding of the compound to rat MIF.
Rat MIF obtained in REFERENCE EXAMPLE 6 was immobilized on a sensor chip CM5 (manufactured by Biacore Co., Ltd.). Thereafter, phosphate buffered saline (PBS) containing 10 μM of 3-[2-(4-oxo-4H-1,3-benzothiazin-2-yl)-4-pyridyl]propionic acid (the compound of EXAMPLE 308 described in WO 03/020719) was flown over the sensor chip and changes in surface plasmon resonance signal were monitored as the binding of the compound to rat MIF.

[1] = test system: primary cardiomyocytes derived from rat neonates; assay: Inhibition of serum depletion-induced myocardial cell death (WST-8 viable cell count); assay type: cell-based; settings: serum depletion, 4 days, WST-8 viable cell count
Source text: Neonates (within one day after birth) were obtained from pregnant Wistar rats purchased from Charles River Japan, Inc. and anesthetized with ether. After sterilization with 70% ethanol, the heart was removed with forceps. After washing with phosphate buffered saline (manufactured by Takara Co., Ltd., T900), the heart removed was minced with surgical scissors. The pieces of tissue were washed 4 or 5 times with phosphate buffered saline to remove most of non-cardiomyocytes derived from blood. To the pieces of tissue corresponding to 10 neonates, 5 ml of an enzyme solution [which is a solution of trypsin (1.25 mg) (manufactured by Difco) and collagenase (0.25 mg) (manufactured by Sigma) in phosphate buffer (1 ml)] was added. The mixture was stirred for 15 minutes with a stirrer while maintaining at 37° C. After 2.5 ml of the enzyme solution was replenished, the mixture was stirred for further 15 minutes, and this procedure was repeated twice. Subsequently, Medium 199 (manufactured by Gibco) containing 10% fetal cow serum (manufactured Biowicker, Inc.) was added to the mixture in a half volume of the enzyme solution to terminate the enzymatic reaction. After filtering through a cell strainer (manufactured by Falcon), the mixture was centrifuged at 400×g for 5 minutes to collect the cells.
The cells were then recovered, filtered through a cell strainer and centrifuged at 400×g for 5 minutes to collect primary cardiomyocytes derived from rat neonates.
Next, the primary cardiomyocytes derived from rat neonates (corresponding 10 neonates) were suspended in 2 ml of a hypotonic solution [solution obtained by dissolving NH4Cl (8.29 g), KHCO3 (1.0 g) and EDTA/2Na (ethylenediaminetetraacetic acid disodium; manufactured by Dojin Chemical Laboratory) (37 mg) in water (1 L)]. The suspension was allowed to stand for 3 minutes to disrupt erythrocytes. To the suspension 10 ml of Medium 199 containing 10% fetal cow serum was added, and the mixture was centrifuged at 400×g for 5 minutes to collect the primary cardiomyocytes derived from rat neonates. […] An aliquot of the cardiomyocytes suspension obtained was taken out and 0.3% trypan blue was added thereto. The mixture was gently stirred and the count of cardiomyocytes was counted with a hemocytometer.
Incubation was continued for further 4 days to induce cell death. […]
The mean value (±SD) in the minimum effective concentration of Compound 1 required for inhibiting the cell death was 0.015±0.011 μM. The concentration of Compound 1 required for increasing the mean cell count by 30% when compared to the cell count without the addition of Compound 1 was determined to be the minimum effective concentration. […]

[2] = test system: Human normal articular chondrocytes; assay: Inhibitory activity against cell death of human articular chondrocytes induced by NO (MTT); assay type: cell-based; settings: 100 μM; 1.5 mM sodium nitroprusside 5 hours; mean ±SD
Method: Human normal articular chondrocytes (Clonetics, Inc.) were proliferated in a growth medium for articular chondrocytes (CGM, Clonetics, Inc.) in monolayer culture. Then, the cells were suspended in 1.2% alginate-containing 155 mM NaCl solution in a density of 2.0×10^6 cells/ml, and beads having a 2 mm diameter were prepared using a syringe with a 22 gauge needle. The beads were incubated in a differentiation medium for articular chondrocytes (CDM, Clonetics, Inc.) charged in a 96-well round-bottomed plate (1 bead/well, manufactured by FALCON) for further 7 days. The medium was replaced by α-modified minimum essential medium containing Compound 1 (0.1 μM or 1 μM) and 10% fetal cow serum, followed by incubation for 48 hours and then for 5 hours in the co-presence of 1.5 mM sodium nitroprusside (NO generator, manufactured by Sigma). As control drugs, caspase 3 inhibitor (Z-DEVD-FMK (SEQ ID NO: 5), 100 μM, manufactured by R & D Systems, Inc.) and caspase 9 inhibitor (Z-LEHD-FMK (SEQ ID NO: 6), 100 μM, manufactured by R & D Systems, Inc.) were similarly monitored for their activities. After completion of the experiment, alginate was removed and the cell survival rate was determined by the MTT technique.
In the table, the numerical values indicate mean values (±SD) of the cell death inhibition rates as converted from the measurement data by the MTT technique. The cell survival rate after the addition of 1.5 mM sodium nitroprusside (without addition of either Compound 1 or control drug) was 31.9%.

Compound | myocardial cell death inhibitory activity [1] | Cell Death Inhibition Rate [2] | further results
O=C(O)CCc1ccnc(-c2nc(=O)c3ccccc3s2)c1 [3-[2-(4-oxo-4H-1,3-benzothiazin-2-yl)-4-pyridyl]propionic acid] |  |  | binding of the compound to rat MIF (changes in surface plasmon resonance signal) (rat MIF): could be selected as the substance binding to MIF
C=CC1=C(C)c2cc3[n-]c(cc4[n-]c(cc5nc(cc1n2)C(C)=C5C=C)c(C)c4CCC(=O)O)c(CCC(=O)O)c3C.O.[Fe+2] [hematin, reference compound] | exhibit the activity of inhibiting myocardial cell death |  | 
Z-DEVD-FMK [reference compound] |  | 49.7 ± 10.3 | 
Z-LEHD-FMK (Z N-cap, FMK C-terminus) [reference compound] |  | 62.7 ± 10.6 | 
hemin [reference compound] | exhibit the activity of inhibiting myocardial cell death |  | 

— US8173360B2, “Cell death inhibitor” (Takeda Pharmaceutical Company Limited, priority 2002, dated 2012)
